# Test results reported in patent publication US10562909B2, “Fused quadracyclic compounds, compositions and uses thereof” (Tabomedex Biosciences, LLC, priority 2016, dated 2020).
# Target: MAPKAPK2 (Homo sapiens, UniProt P49137)
# Assay: MK2 Enzymatic Assay
# Assay type: biochemical
# Conditions: 0.5 nM MAPKAPK2, 3 μM ATP, 2 μM Ser/Thr4 peptide, 23° C., values given as concentration bins
# Method in brief: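 MAPKAPK2 (2× stock 1 nM) and peptide substrate (2× 4 μM) were preincubated 20 min, then started with ATP (2× stock 6 μM) for 120 min. After 120 min development, coumarin/fluorescein emission ratio gave percent phosphorylation against 0% and 100% phosphopeptide controls.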
# MAPKAPK2, sequence (P49137 whole entry, species assumed): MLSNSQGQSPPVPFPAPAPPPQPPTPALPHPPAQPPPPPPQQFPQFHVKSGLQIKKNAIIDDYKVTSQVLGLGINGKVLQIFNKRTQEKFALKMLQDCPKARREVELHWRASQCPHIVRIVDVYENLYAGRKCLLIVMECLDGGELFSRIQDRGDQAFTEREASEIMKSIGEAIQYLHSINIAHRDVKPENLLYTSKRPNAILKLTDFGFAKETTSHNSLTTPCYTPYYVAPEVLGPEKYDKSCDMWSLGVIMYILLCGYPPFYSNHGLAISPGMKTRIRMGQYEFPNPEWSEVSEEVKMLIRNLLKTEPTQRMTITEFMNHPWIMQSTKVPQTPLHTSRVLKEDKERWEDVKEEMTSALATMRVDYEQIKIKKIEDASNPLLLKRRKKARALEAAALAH
row,Structure (SMILES),IC50 [nM]
1,"N#Cc1ccc(-c2cc3n(c2)Cc2cc(N4CCC5(CNC5)C4)ncc2-n2ccnc2-3)cc1 [Compound 323, 4-(7-(2,6-diazaspiro[3.4]octan-6-yl)-9H-imidazo[2,1-c]pyrido[3,4-e]pyrrolo[1,2-a][1,4]diazepin-12-yl)benzonitrile]",50 to 100
2,"N#Cc1ccc(-c2cc3n(c2)Cc2cc(N4CC5(CCNC5)C4)ccc2-n2ncnc2-3)cc1 [Compound 258, 4-(7-(2,6-diazaspiro[3.4]octan-2-yl)-9H-benzo[e]pyrrolo[1,2-a][1,2,4]triazolo[5,1-c][1,4]diazepin-12-yl)benzonitrile]",50 to 100
3,"N#Cc1ccc(-c2cc3n(c2)Cc2cc(N4CCNCC4)ccc2-n2cnnc2-3)cc1 [Compound 1, 4-(7-(piperazin-1-yl)-9H-benzo[e]pyrrolo[1,2-a][1,2,4]triazolo[3,4-c][1,4]diazepin-12-yl)benzonitrile]",100 to 200
4,"CN(C)C[C@@H]1CCN(c2ccc3c(c2)Cn2cc(-c4ccc(C#N)cc4)cc2-c2nnnn2-3)C1 [Compound 241, (S)-4-(7-(3-((dimethylamino)methyl)pyrrolidin-1-yl)-9H-benzo[e]pyrrolo[1,2-a]tetrazolo[5,1-c][1,4]diazepin-12-yl)benzonitrile]",< 50
5,"CNC[C@H]1CN(c2ccc3c(c2)Cn2cc(-c4ccc(F)cc4)cc2-c2nccn2-3)C[C@H]1F [Compound 466, 1-((3S,4S)-4-fluoro-1-(12-(4-fluorophenyl)-9H-benzo[e]imidazo[2,1-c]pyrrolo[1,2-a][1,4]diazepin-7-yl)pyrrolidin-3-yl)-N-methylmethanamine]",< 50
6,"N#Cc1ccc(-c2cc3n(c2)Cc2cc(N4CC[C@H]5NCC[C@@H]54)ccc2-n2nnnc2-3)cc1 (racemic) [Compound 232, 4-(7-(trans-hexahydropyrrolo[3,2-b]pyrrol-1(2H)-yl)-9H-benzo[e]pyrrolo[1,2-a]tetrazolo[5,1-c][1,4]diazepin-12-yl)benzonitrile]",< 50
7,"OC[C@@H]1CNC[C@H]1Nc1ccc2c(c1)Cn1cc(-c3ccc(F)cc3)cc1-c1nccn1-2 (relative stereo) [Compound 495, (Trans-4-((12-(4-fluorophenyl)-9H-benzo[e]imidazo[2,1-c]pyrrolo[1,2-a][1,4]diazepin-7-yl)amino)pyrrolidin-3-yl)methanol]",100 to 200
8,"CNCC1CCN(c2ccc3c(c2)Cn2cc(-c4ccc(F)cc4)cc2-c2nnnn2-3)C1 (stereo not shown) [Compound 388, 1-(1-(12-(4-fluorophenyl)-9H-benzo[e]pyrrolo[1,2-a]tetrazolo[5,1-c][1,4]diazepin-7-yl)pyrrolidin-3-yl)-N-methylmethanamine]",< 50
9,"CCN1CC2(CCN(c3ccc4c(c3)Cn3cc(-c5ccc(F)cc5)cc3-c3nccn3-4)C2)C1 [Compound 367, 7-(2-ethyl-2,6-diazaspiro[3.4]octan-6-yl)-12-(4-fluorophenyl)-9H-benzo[e]imidazo[2,1-c] pyrrolo[1,2-a][1,4]diazepine]",< 50
10,"O[C@@H]1CN(c2ccc3c(c2)Cn2cc(-c4ccc(F)cc4)cc2-c2nccn2-3)C[C@H]1CN1CCCC1 [Compound 471, (3S,4R)-1-(12-(4-fluorophenyl)-9H-benzo[e]imidazo[2,1-c]pyrrolo[1,2-a][1,4]diazepin-7-yl)-4-(pyrrolidin-1-ylmethyl)pyrrolidin-3-ol]",< 50
11,"CN(C)[C@@H]1CN(c2ccc3c(c2)Cn2cc(-c4ccc(F)cc4)cc2-c2nccn2-3)C[C@@H]1O [Compound 353, (3S,4R)-4-(dimethylamino)-1-(12-(4-fluorophenyl)-9H-benzo[e]imidazo[2,1-c]pyrrolo[1,2-a] [1,4]diazepin-7-yl)pyrrolidin-3-ol]",< 50
12,"CN(C)[C@H]1CCN(c2ccc3c(c2)Cn2cc(-c4ccc(C#N)cc4)cc2-c2ncnn2-3)C1 [Compound 260, (S)-4-(7-(3-(dimethylamino)pyrrolidin-1-yl)-9H-benzo[e]pyrrolo[1,2-a][1,2,4]triazolo[5,1-c][1,4]diazepin-12-yl)benzonitrile]",< 50
13,"CN(C)C[C@@H]1CN(c2ccc3c(n2)Cn2cc(-c4ccc(F)cc4)cc2-c2nccn2-3)C[C@@H]1O [Compound 430, (3R,4R)-4-((dimethylamino)methyl)-1-(12-(4-fluorophenyl)-9H-imidazo[2,1-c]pyrido[3,2-e]pyrrolo[1,2-a][1,4]diazepin-7-yl)pyrrolidin-3-ol]",< 50
